Test results taken from article PMC9450014, “The evaluation of ADME and pharmacokinetic properties of decoquinate derivatives for the treatment of malaria” (Frontiers in Pharmacology, 2022).
Several values for one entry are separate records, joined by “and”; a condition that tells them apart may be missing. Identical values can stand only once.

How the values were obtained:
[1] = Passive permeability, parallel artificial membrane permeation assay (PAMPA); format: in vitro ADME; details: donor pH 6.5, acceptor pH 7.4, 4 h, read-out: Permeability (LogPapp) (converted)
Protocol: A parallel artificial membrane permeation assay (PAMPA) was used to assess the passive permeability of compounds with a 96-well MultiScreen filter plate ([…] pore size, Millipore). The filter plate was precoated with 5% hexadecane in hexane. Stock solutions of compounds were diluted to 1 mM in a donor buffer (pH 6.5). Lucifer yellow was added to the apical wells of the precoated MultiScreen plate containing compound donor solution. The donor buffer solutions were spiked with each test compound (1 mM). The acceptor-buffer solution was prepared by adding 10 μL DMSO to 990 μL acceptor buffer (pH 7.4) and 250 μL were added to the basolateral (acceptor) wells. The donor plate was carefully inserted into the acceptor plate and incubated at room temperature for 4 h. After the incubation period, 50 μL of samples from the acceptor plate were transferred to a round bottom 96-well plate, together with 30 μL of donor buffer for matrix matching. Theoretical equilibrium samples for each test compound were prepared by adding 150 μL of donor solutions to 250 μL acceptor solutions and left at room temperature. These theoretical equilibrium samples represent complete transfer of the compound into the donor well. For the theoretical equilibrium samples, 80 μL were added to the analysis plate. Lastly, 160 μL of the internal standard carbamazepine (0.1 μM) was added to all acceptor and equilibrium samples. A portion of the sample containing Lucifer yellow was analyzed on a BioRad iMark^TM Microplate Absorbance Reader (BioRad, Hercules, CA, United States; excitation 490 nm, emission 510–570 nm) to determine that P app was within the acceptable range (<50 nm/s). Samples were analysed using reverse phase Gemini NX-C18 column (5 μM, 2.1 mm × 50 mm) with a Shimadzu HPLC coupled with an AB Sciex 3200 Q TRAP MS). The Papp for each compound was determined using. C=VD × VA/(VD+VA) ×A×t where VA = volume of donor compartment (0.15 cm^3), VD = volume of acceptor compartment (0.25 cm^3), A = accessible filter area (0.24 cm^2) and t = incubation time (14,400 s). […]

[2] = Metabolic stability in human liver microsomes; format: in vitro ADME
Protocol: A 5-point metabolic stability assay in human and mouse liver microsomes were performed in duplicate in 96-well plates. Stock solution of RMB005, −059 and 060 prepared in DMSO were individually incubated at 37°C in mouse and pooled human liver microsomes (0.4 mg/mL). An aliquot was removed at 0 min and quenched with ice cold acetonitrile containing the internal standard carbamazepine (0.1 μM). The cofactor NADPH was added, and the reactions were subsequently stopped at time points 5, 10, 30, and 60 min by removal of an aliquot and quenching with ice cold acetonitrile containing the internal standard. The supernatant of all samples were analysed via LC-MS/MS analysis (reverse phase Gemini NX-C18 column and Shimadzu HPLC and AB Sciex 3200 Q TRAP MS). Calculation of in vitro t1/2, intrinsic clearance rate (CLint) and predicted in vivo clearance (CLH) was carried out using the following equations ([Obach 1999]). CLintClint= 0.693/t1/2(min) ×Volume of incubation (μL)/microsomal protein (μg) Where t1/2 is calculated in minutes.
Predicted in vivo CLH CLH=Q × fu(plasma)×CLint/fu(mic)/Q+ fu(plasma)× CLint/fu(mic) Where Q is the hepatic blood flow of mouse (90 mL/min/kg) or human (20.7 mL/min/kg). Fu(plasma) is the unbound drug fraction in the plasma and fu(mic) is the unbound fraction in the microsomes.
The equation below was used in the case of RMB059 and -060, where protein-binding data were not available. CLH=Q × CLint/Q+ CLint

[3] = In vivo pharmacokinetics, oral administration; parameters: species or system C57BL/6 mice; details: mice
Protocol: Healthy C57BL/6 mice each weighing approximately 25 g were maintained at the University of Cape Town animal facility. Mice were housed in 27 × 21 × 28 cm cages (n = 3) under controlled environmental conditions at 22 ± 2°C, humidity of 55 ± 15% and a 12-hour light/dark cycle. Food and water were available ad libitum. Mice were acclimatised to the experimental environment for 4–5 days prior to initiating the experiments. RMB005, −059 and −060 were prepared in an aqueous solution of HPMC containing 0.2% Tween 80. The weighed compound was sonicated and vortexed to obtain a homogenous suspension. Oral dosing of 20 mg/kg was achieved via oral gavage. The total volume per administration was 200 μL. Blood samples were collected post-dose in lithium heparin microvials via tail bleeding at predetermined intervals at 0.5, 1, 3, 5, 8, 10, and 24 h. Samples were gently vortexed and stored at −80°C until analysis. A quantitative LC-MS/MS assay was used to determine whole-blood concentrations of RMB005, −059 and −060. Whole blood samples (20 μL) were treated with 100 μL ice cold acetonitrile containing the compound RMB073 used previously for determination of whole blood concentrations in analysis of TB-active compounds, as internal standard (200 ng/ml) ([Tanner et al., 2019]). The mixture was vortexed vigorously for 1 min, and 5 µL of the supernatant were injected onto the analytical column following centrifugation (5,590 g for 5 min). Gradient elution was carried out using a Gemini NX-C18 analytical column (5 μm, 2.1 mm × 50 mm). The aqueous mobile phase consisted of 5 mm ammonium acetate with 0.1% acetic acid in deionised water, while the organic phase consisted of 0.1% acetic acid in acetonitrile. A Shimadzu HPLC and reverse phase Gemini NX-C18 column coupled to an AB Sciex 3200 Q TRAP MS was operated at unit resolution in the multiple reaction monitoring (MRM) mode. […] The calibration standards ranged from 2 ng/mL to 3,000 ng/mL for RMB005, and 2 ng/mL to 4,000 ng/mL for RMB059, −060 and DQ. Drug concentration versus time plots for each compound were used to determine maximal drug concentration C max, time T max to reach C max, elimination half-life t 1/2 and the area under the concentration-time curve from time zero to infinity, AUC0-inf. From these values the following PK parameters—clearance CL, volume of distribution (Vd) and oral bioavailability (BA) were determined using the non-compartmental analysis Microsoft Excel Add-In PKSolver ([Zhang et al., 2010]).

[4] = tested on: multidrug resistant Pf K1; parameters: method as in Beteck et al., 2018; details: ref Beteck et al., 2018; read-out: IC50 against multidrug resistant Pf K1; cited from earlier work

Papp at 4 h, 1 mM [1]: 0.501 ×10⁻⁶ cm/s
CLint scaled ([2]; human, pooled liver microsomes, calculated from t1/2 in HLM, read-out: In vitro CLint HLM): 4 mL/min/kg
half-life ([2]; pooled liver microsomes, human liver microsomes, NADPH, read-out: Degradation half-life HLM): > 150 min
Estimated in vivo CLH HLM ([2]; protein binding data included): 12.6 mL/min/kg
Tmax ([3]; C57BL/6, mouse, whole blood, po, 20 mg/kg, po 20 mg/kg, dosed compound measured): ~42 min
Cmax ([3]; C57BL/6, mouse, po 20 mg/kg, whole blood, dosed compound measured, read-out: Cmax): 490 ± 20 nM
BA ([3]; po 20 mg/kg vs iv, 20 mg/kg): 4% and 4 ± 0.3%
AUC0-∞ ([3]; po 20 mg/kg, whole blood, dosed compound measured, 20 mg/kg): 59 µmol·min/L and 59 ± 2 µmol·min/L
Structure (SMILES): CCCCCCCCCCOc1cc2c(=O)c(C(=O)NCCOCCO)c[nH]c2cc1OCC [RMB005]
IC50 [4]: 64.8 nM
